Patent US20150342901A1, “COMPOSITION COMPRISING NATURAL POLYPHENOL COMPOUNDS, AND COMPOSITION FOR ORAL ADMINISTRATION COMPRISING SAME” (SAMSUNG FINE CHEMICALS CO., LTD., priority 2012, published 2015)
Converted amounts (≈) assume the structure as drawn.

Experiment: Solubility of poorly water-soluble natural polyphenolic compound (PSNPPC) in water
Type: physicochemical
Details: for solubility: PSNPPC alone, solubility = amount (mg) of solute that dissolves in 1 mL of water at 37° C.
Experimental: In the present specification. “solubility” refers to an amount (mg) of a solute (PSNPPC) that dissolves in 1 mL of water at 37° C., which is similar to a human body temperature.
Solubility of 3 types of poorly water-soluble natural polyphenolic compounds (PSNPPC) (a product of Naturex SA of France) were measured, and the results thereof are shown in Table 1.

Row | solubility [µg/mL] | Solubility (@37° C.) | Molecule
1 | 4 (≈ 10.9 µM) | – | COc1cc(/C=C/C(=O)CC(=O)/C=C/c2ccc(O)c(OC)c2)ccc1O [Curcumin, curcumin]
2 | 87 (≈ 381 µM) | – | Oc1ccc(C=Cc2cc(O)cc(O)c2)cc1 [Resveratrol, resveratrol]
3 | – | 0.008 | silymarin
